Experiments:
BFTC-905 = assay: cells; format: functional, cell-based; conditions: Homo sapiens
Description: SANGER: Inhibition of human BFTC-905 cell growth in a cell viability assay.

PFSK-1 = assay: cells; format: functional, cell-based; conditions: Homo sapiens;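 note: cell viability assay measuring how strongly compounds suppress growth of human PFSK-1 cells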
Description: SANGER: Inhibition of human PFSK-1 cell growth in a cell viability assay.

5637 = assay: cells; format: functional, cell-based; conditions: Homo sapiens
Description: SANGER: Inhibition of human 5637 cell growth in a cell viability assay.

Huh-7 = assay: cells; format: functional, cell-based; conditions: Homo sapiens;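 note: HuH-7 cell growth inhibition, read out with a cell viability assay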
Description: SANGER: Inhibition of human HuH-7 cell growth in a cell viability assay.

CAL-33 = assay: cells; format: functional, cell-based; conditions: Homo sapiens;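 note: growth inhibition of CAL-33 cells, read out with a cell viability assay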
Description: SANGER: Inhibition of human CAL-33 cell growth in a cell viability assay.

HT-29 = assay: cells; format: functional, cell-based; conditions: Homo sapiens;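 note: growth inhibition of human HT-29 cells, read out by a cell viability assay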
Description: SANGER: Inhibition of human HT-29 cell growth in a cell viability assay.

OAW-28 = assay: cells; format: functional, cell-based; conditions: Homo sapiens;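 note: growth inhibition of OAW-28 cells, read out with a cell viability assay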
Description: SANGER: Inhibition of human OAW-28 cell growth in a cell viability assay.

NUGC-3 = assay: cells; format: functional, cell-based; conditions: Homo sapiens;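 note: growth inhibition of human NUGC-3 cells, read out with a cell viability assay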
Description: SANGER: Inhibition of human NUGC-3 cell growth in a cell viability assay.

RD = assay: cells; format: functional, cell-based; conditions: Homo sapiens
Description: SANGER: Inhibition of human RD cell growth in a cell viability assay.

IGR-1 = assay: cells; format: functional, cell-based; conditions: Homo sapiens;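 note: growth inhibition of human IGR-1 cells, read out with a cell viability assay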
Description: SANGER: Inhibition of human IGR-1 cell growth in a cell viability assay.

MC-IXC = assay: cells; format: functional, cell-based; conditions: Homo sapiens;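 note: growth inhibition of MC-IXC cells, read out with a cell viability assay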
Description: SANGER: Inhibition of human MC-IXC cell growth in a cell viability assay.

SW1710 = assay: cells; format: functional, cell-based; conditions: Homo sapiens;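 note: growth inhibition of SW1710 cells, determined with a cell viability assay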
Description: SANGER: Inhibition of human SW1710 cell growth in a cell viability assay.

AU565 = assay: cells; format: functional, cell-based; conditions: Homo sapiens;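 note: cell viability assay measuring growth inhibition of human AU565 cells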
Description: SANGER: Inhibition of human AU565 cell growth in a cell viability assay.

OE19 = assay: cells; format: functional, cell-based; conditions: Homo sapiens;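 note: growth inhibition of OE19 cells, measured through a cell viability read-out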
Description: SANGER: Inhibition of human OE19 cell growth in a cell viability assay.

CAL-62 = assay: cells; format: functional, cell-based; conditions: Homo sapiens;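 note: growth inhibition of CAL-62 cells, read out with a cell viability assay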
Description: SANGER: Inhibition of human CAL-62 cell growth in a cell viability assay.

DMS-273 = assay: cells; format: functional, cell-based; conditions: Homo sapiens
Description: SANGER: Inhibition of human DMS-273 cell growth in a cell viability assay.

KOSC-2 = assay: cells; format: functional, cell-based; conditions: Homo sapiens;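 note: growth inhibition of KOSC-2 cells, read out by a cell viability assay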
Description: SANGER: Inhibition of human KOSC-2 cell growth in a cell viability assay.

AN3-CA = assay: cells; format: functional, cell-based; conditions: Homo sapiens;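 note: growth inhibition of human AN3-CA cells measured by a cell viability assay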
Description: SANGER: Inhibition of human AN3-CA cell growth in a cell viability assay.

NCI-H596 = assay: cells; format: functional, cell-based; conditions: Homo sapiens;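 note: growth inhibition of NCI-H596 cells, read out with a cell viability assay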
Description: SANGER: Inhibition of human NCI-H596 cell growth in a cell viability assay.

SCC-25 = assay: cells; format: functional, cell-based; conditions: Homo sapiens;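 note: growth inhibition of SCC-25 cells, measured with a cell viability assay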
Description: SANGER: Inhibition of human SCC-25 cell growth in a cell viability assay.

CAPAN-1 = assay: cells; format: functional, cell-based; conditions: Homo sapiens;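 note: growth suppression of CAPAN-1 cells, read out by a cell viability assay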
Description: SANGER: Inhibition of human CAPAN-1 cell growth in a cell viability assay.

NB17 = assay: cells; format: functional, cell-based, Homo sapiens; conditions: Homo sapiens, NB17;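 note: growth inhibition of NB17 cells, read out with a cell viability assay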
Description: SANGER: Inhibition of human NB17 cell growth in a cell viability assay.

NCI-H2170 = assay: cells; format: functional, cell-based; conditions: Homo sapiens;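 note: cell viability assay measuring growth inhibition of human NCI-H2170 cancer cells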
Description: SANGER: Inhibition of human NCI-H2170 cell growth in a cell viability assay.

PANC-03-27 = assay: cells; format: functional, cell-based; conditions: Homo sapiens
Description: SANGER: Inhibition of human PANC-03-27 cell growth in a cell viability assay.

NCI-H1563 = assay: cells; format: functional, cell-based; conditions: Homo sapiens;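 note: growth inhibition of human NCI-H1563 cells, read out with a cell viability assay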
Description: SANGER: Inhibition of human NCI-H1563 cell growth in a cell viability assay.

SK-MEL3 = assay: cells; format: functional, cell-based, SK-MEL-3; conditions: Homo sapiens;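 note: growth inhibition of human SK-MEL-3 cells, read out with a cell viability assay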
Description: SANGER: Inhibition of human SK-MEL-3 cell growth in a cell viability assay.

Ca9-22 = assay: cells; format: functional, cell-based; conditions: Homo sapiens;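 note: growth inhibition of Ca9-22 cells, read out with a cell viability assay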
Description: SANGER: Inhibition of human Ca9-22 cell growth in a cell viability assay.

HGC-27 = assay: cells; format: functional, cell-based; conditions: Homo sapiens;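 note: growth inhibition of human HGC-27 cells, read out in a cell viability assay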
Description: SANGER: Inhibition of human HGC-27 cell growth in a cell viability assay.

NCI-H1623 = assay: cells; format: functional, cell-based; conditions: Homo sapiens;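 note: cell viability assay used as the read-out for growth inhibition of NCI-H1623 cells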
Description: SANGER: Inhibition of human NCI-H1623 cell growth in a cell viability assay.

SK-MEL-30 = assay: cells; format: functional, cell-based; conditions: Homo sapiens;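 note: growth inhibition of SK-MEL-30 cells, determined with a cell viability assay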
Description: SANGER: Inhibition of human SK-MEL-30 cell growth in a cell viability assay.

NCI-H2452 = assay: cells; format: functional, cell-based; conditions: Homo sapiens;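 note: growth inhibition of NCI-H2452 cells, read out with a cell viability assay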
Description: SANGER: Inhibition of human NCI-H2452 cell growth in a cell viability assay.

CP50-MEL-B = assay: cells; format: functional, cell-based; conditions: Homo sapiens;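 note: growth inhibition of the human cell line, measured with a cell viability read-out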
Description: SANGER: Inhibition of human CP50-MEL-B cell growth in a cell viability assay.

SCC-9 = assay: cells; format: functional, cell-based; conditions: Homo sapiens;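 note: Read-out is a cell viability assay, with values giving inhibition of cell growth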
Description: SANGER: Inhibition of human SCC-9 cell growth in a cell viability assay.

SKG-IIIa = assay: cells; format: functional, cell-based; conditions: Homo sapiens;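 note: cell growth inhibition, read out with a cell viability assay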
Description: SANGER: Inhibition of human SKG-IIIa cell growth in a cell viability assay.

PC-14 = assay: cells; format: functional, cell-based; conditions: Homo sapiens;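 note: cell viability assay measuring inhibition of PC-14 cell growth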
Description: SANGER: Inhibition of human PC-14 cell growth in a cell viability assay.

HCC1395 = assay: cells; format: functional, cell-based; conditions: Homo sapiens;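 note: growth inhibition of HCC1395 cells, read out by a cell viability assay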
Description: SANGER: Inhibition of human HCC1395 cell growth in a cell viability assay.

DOK = assay: cells; format: functional, cell-based; conditions: Homo sapiens;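 note: cell viability assay read-out, values reflect inhibition of cell growth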
Description: SANGER: Inhibition of human DOK cell growth in a cell viability assay.

D-336MG = assay: cells; format: functional, cell-based, Homo sapiens; conditions: Homo sapiens, D-336MG
Description: SANGER: Inhibition of human D-336MG cell growth in a cell viability assay.

NCI-H2122 = assay: cells; format: functional, cell-based; conditions: Homo sapiens;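 note: growth inhibition of the cells, read out with a cell viability assay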
Description: SANGER: Inhibition of human NCI-H2122 cell growth in a cell viability assay.

UACC-893 = assay: cells; format: functional, cell-based; conditions: Homo sapiens
Description: SANGER: Inhibition of human UACC-893 cell growth in a cell viability assay.

M059J = assay: cells; format: functional, cell-based; conditions: Homo sapiens;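 note: growth inhibition of M059J cells, read out with a cell viability assay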
Description: SANGER: Inhibition of human M059J cell growth in a cell viability assay.

MDA-MB-157 = assay: cells; format: functional, cell-based; conditions: Homo sapiens
Description: SANGER: Inhibition of human MDA-MB-157 cell growth in a cell viability assay.

NCI-H661 = assay: cells; format: functional, cell-based; conditions: Homo sapiens;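 note: cell viability assay read-out, IC50 being the concentration that inhibits growth of the cells by half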
Description: SANGER: Inhibition of human NCI-H661 cell growth in a cell viability assay.

NCI-H358 = assay: cells; format: functional, cell-based; conditions: Homo sapiens;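 note: growth inhibition of NCI-H358 human cells, read out with a cell viability assay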
Description: SANGER: Inhibition of human NCI-H358 cell growth in a cell viability assay.

HSC-2 = assay: cells; format: functional, cell-based; conditions: Homo sapiens;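 note: growth inhibition of human HSC-2 cells, read out by a cell viability assay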
Description: SANGER: Inhibition of human HSC-2 cell growth in a cell viability assay.

SW1990 = assay: cells; format: functional, cell-based; conditions: Homo sapiens
Description: SANGER: Inhibition of human SW1990 cell growth in a cell viability assay.

REH = assay: cells; format: functional, cell-based, Homo sapiens; conditions: Homo sapiens, REH;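 note: growth inhibition of REH cells determined with a cell viability read-out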
Description: SANGER: Inhibition of human REH cell growth in a cell viability assay.

THP-1 = assay: cells; format: functional, cell-based, Homo sapiens; conditions: Homo sapiens, THP-1;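 note: growth inhibition of THP-1 cells, read out via a cell viability assay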
Description: SANGER: Inhibition of human THP-1 cell growth in a cell viability assay.

CA46 = assay: cells; format: functional, cell-based, Homo sapiens; conditions: Homo sapiens, CA46;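 note: growth inhibition of human CA46 cells, read out by a cell viability assay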
Description: SANGER: Inhibition of human CA46 cell growth in a cell viability assay.

CAL-148 = assay: cells; format: functional, cell-based, Homo sapiens; conditions: Homo sapiens, CAL-148
Description: SANGER: Inhibition of human CAL-148 cell growth in a cell viability assay.

IMR-5 = assay: cells; format: functional, cell-based, Homo sapiens; conditions: Homo sapiens, IMR-5; read-out: IC50;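 note: growth inhibition of human IMR-5 cells, read out with a cell viability assay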
Description: SANGER: Inhibition of human IMR-5 cell growth in a cell viability assay.

NCI-H748 = assay: cells; format: functional, cell-based, Homo sapiens; conditions: Homo sapiens, NCI-H748;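 note: growth inhibition of NCI-H748 cells, measured by a cell viability assay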
Description: SANGER: Inhibition of human NCI-H748 cell growth in a cell viability assay.

HCC1599 = assay: cells; format: functional, cell-based, Homo sapiens; conditions: Homo sapiens, HCC1599;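 note: growth inhibition of HCC1599 cells, read out in a cell viability assay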
Description: SANGER: Inhibition of human HCC1599 cell growth in a cell viability assay.

NCI-H716 = assay: cells; format: functional, cell-based, Homo sapiens; conditions: Homo sapiens, NCI-H716;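 note: growth inhibition of human NCI-H716 cells, measured by a cell viability assay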
Description: SANGER: Inhibition of human NCI-H716 cell growth in a cell viability assay.

CMK = assay: cells; format: functional, cell-based, Homo sapiens; conditions: Homo sapiens, CMK;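 note: growth inhibition of CMK cells, read out as cell viability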
Description: SANGER: Inhibition of human CMK cell growth in a cell viability assay.

NCCIT = assay: SANGER: Inhibition of human NCCIT cell growth in a cell viability assay.; format: functional, cell-based; conditions: Homo sapiens, NCCIT
CHP-126 = assay: cells; format: functional, cell-based, Homo sapiens; conditions: Homo sapiens, CHP-126
Description: SANGER: Inhibition of human CHP-126 cell growth in a cell viability assay.

LU-165 = assay: cells; format: functional, cell-based, Homo sapiens; conditions: Homo sapiens, LU-165
Description: SANGER: Inhibition of human LU-165 cell growth in a cell viability assay.

COR-L279 = assay: SANGER: Inhibition of human COR-L279 cell growth in a cell viability assay.; format: functional, cell-based; conditions: Homo sapiens, COR-L279

Measured: IC50

O=C1NC(=O)c2c1c(-c1ccccc1Cl)cc1[nH]c3ccc(O)cc3c21
1240 nM: DOK
1210 nM: PANC-03-27
1310 nM: SK-MEL3
1180 nM: SW1990
1620 nM: BFTC-905
not listed: REH | THP-1 | CA46 | CAL-148 | IMR-5 | NCI-H748 | HCC1599 | NCI-H716 | CMK | NCCIT | CHP-126 | LU-165 | COR-L279
> 2000 nM: all other assays above

CS(=O)(=O)N1CCN(Cc2cc3nc(-c4cccc5[nH]ncc45)nc(N4CCOCC4)c3s2)CC1 [PICTILISIB]
1130 nM: BFTC-905
1040 nM: SW1710
914 nM: SCC-25
302 nM: DOK
2820 nM: MDA-MB-157
304 nM: NCI-H1623
2860 nM: DMS-273
2660 nM: SKG-IIIa
1320 nM: AU565
340 nM: AN3-CA
916 nM: NCI-H1563
3730 nM: PC-14
213 nM: HGC-27
1210 nM: Huh-7
2710 nM: 5637
1940 nM: PFSK-1
1510 nM: PANC-03-27
not listed: D-336MG | REH | THP-1 | CA46 | CAL-148 | IMR-5 | NCI-H748 | HCC1599 | NCI-H716 | CMK | NCCIT | CHP-126 | LU-165 | COR-L279
> 4000 nM: all other assays above

Cc1cc(N2CCOCC2)cc2[nH]c(-c3c(NC[C@@H](O)c4cccc(Cl)c4)cc[nH]c3=O)nc12
745 nM: CMK
3830 nM: NCCIT
> 5120 nM: REH | THP-1 | CA46 | CAL-148 | IMR-5 | NCI-H748 | HCC1599 | NCI-H716 | NB17 | CHP-126 | LU-165 | COR-L279
872 nM: D-336MG

— ChEMBL document CHEMBL1201861, “Genomics of Drug Sensitity in Cancer screening data, Wellcome Trust Sanger Institute”
